Assay results published in patent US20080112915A1, “Dna Delivery with Gemini Cationic Surfactants” (priority 2003, published 2008).

Assays:
PAM212 cells [1] = assay: Transfection of PAM212 cells with pGTmCMV.IFN-GFP plasmid using gemini cationic surfactants and DOPE; IFNγ by ELISA; type: cell-based, murine; conditions: for IFN-γ expression: PAM212 cells, pGTmCMV.IFN-GFP, plasmid-gemini surfactant charge ratio 1:10 in 1 mM DOPE vesicles; for transfection efficiency (in words): dependence on spacer length, charge ratio 1:10, DOPE; for IFNγ levels versus the other compounds with longer linkers: p<0.001
Experimental: The pGTmCMV.IFN-GFP plasmid was used at a concentration of 0.2 μg/well for transfection. Eight gemini surfactants were tested in this study (FIG. 1) (Wettig et al., 2001). Aqueous solutions (1.5 mM) of the gemini cationic surfactants were prepared and filtered through 0.2 μm Acrodisc® filters (Pall Gelman, Ann Arbor, Mich.). Lipid vesicles were prepared by using sonication techniques. 1,2 dioleyl-sn-glycero-phosphatidylethanolamine (DOPE) (Avanti Polar Lipids, Alabaster, Ala.) and α-tocopherol (Spectrum, Gardena Calif.) in 1:0.2 weight ratios were dissolved in 100% ethanol (Commercial Alcohols Inc., Brampton, ON) at a concentration of 10 mg lipid/mL in a round bottom flask. The solvent was evaporated in a rotary evaporator (Rotavapor RE111 BÜCHI Laboratoriums-Technik AG, Switzerland) at 100 rpm and 55° C. to deposit a thin film on the walls of the vessel. To remove traces of organic solvent, the lipid was lyophilized overnight. Glass beads were added to the flask and the lipid was resuspended at 1 μmol/mL concentration in 9.25% w/v isotonic sucrose (Spectrum, Gardena, Calif.) solution (pH 9). The suspensions were bath-sonicated (Branson 2200, Cleansonic Orange, Va.) for 3 hours at 55° C., followed by filtration through 0.45 μm Acrodisc® filters. PAM 212 murine keratinocyte cells were prepared for transfection as described earlier.
The transfection mixtures were prepared as follows: 0.2 μg of plasmid was mixed with aliquots of gemini surfactant solution to obtain plasmid DNA:gemini surfactant charge ratios of 1:5, 1:10, 1:20 or 1:40 and incubated at room temperature for 15 minutes. To this mixture, 25 μL of DOPE liposomes were added. The transfection mixtures were incubated for 30 minutes at room temperature prior to transfection and added to the cells, dropwise. The plates were incubated for periods of 5 or 6-24 hours at 37° C. in a CO2 incubator. The transfection mix was replaced with supplemented MEM and the plates further incubated for 24 hours. The supernatants were collected and stored at −20° C. As a positive control, the cells were transfected with Lipofectamine Plus™ Reagent, as described above.
ELISAs were performed using round bottom 96-well plates (Immulon II, Dynatech Laboratories, Chantilly, Va.). The plates were coated with 50 μL/well of capture antibody, rat anti-mouse IFNγ (Pharmingen, Mississauga, ON) 2 μg/mL coating buffer and incubated for 24 hours at 4° C. The wells were blocked with 1% bovine serum albumin (BSA) (New England Biolabs, Mississauga, ON) solution in PBS at room temperature for one hour. IFNγ standard (Pharmingen) of 250-2000 pg/mL concentration and was used in 1% BSA solution on plates. Protein resuspension buffer was used as a blank control. The supernatants from cell cultures and the skin and lymph homogenates, as well as the serum from mice, were diluted one in four on the plates and incubated overnight at 4° C. Biotinylated rat anti mouse IFNγ (Pharmingen) was added at […] concentration in 1% BSA solution. The plates were incubated for a further 2 h at room temperature. The streptavidin-alkaline phosphatase conjugate (Jackson Immuno Research Laboratories, Inc., West Grove, Pa.) was added in 1:5000 dilution and incubated for 1 h at room temperature, followed by addition of 4-nitrophenyl phosphate di(tris) salt 1 mg/mL in PNPP buffer (1% diethanolamine, 0.5 mM MgCl2, pH 9.8) (Sigma). Optical density of the samples was measured at 405 nm using a Benchmark Microplate Reader (BioRad, Mississauga, ON). The concentration of the IFNγ vas calculated from the standard IFNγ curve, using recombinant murine IFNγ (Pharmingen).

[2] = cited from earlier work; for distance between the cationic head groups: estimated, Chen et al.; for distance between the cationic head groups / Krafft point: 2002; for Γ × 10^6 (surface excess concentration): from Alami et al., 1993; for CMC (critical micellar concentration) / a (head group areas based on activity) / α (degree of micelle ionization): from Wettig et al., 2001; for Krafft point: from Zana
PAM212 cells [3] = assay: FACS of transfected PAM212 cells: GFP fluorescent cells and cell viability; type: cell-based, murine
Experimental: PAM212 cells were seeded on 6-well plates (Costar, Corning N.Y.) at a density of 1×10^6 cells/well density and grown to 60-80% confluency. The supplemented MEM was changed to MEM one hour prior to transfection. The transfection mixes were prepared with 1 μg pGTmCMV.IFN-GFP, using the 16-3-16 gemini cationic surfactant and DOPE liposomes at plasmid DNA:gemini cationic surfactant charge ratio of 1:5, 1:10, 1:20 or 1:40, as described earlier, keeping the concentration of the reagents constant. The cells were detached using Versene solution containing 0.05% trypsin (Sigma), pelleted at 4° C. and 1000 g for 5 minutes, washed twice with PBS and resuspended in Fa-cola (10 mM PBS pH 7.2, 0.2% gelatin, 0.03% sodium azide). Triplicate samples were pooled. The cell sorter was calibrated with non-transfected cells and 10^4 cells of each sample were counted.
The formulations were optimized for plasmid DNA:gemini surfactant charge ratio correlated with cell toxicity using the 16-3-16 compound. The optimal plasmid DNA:gemini surfactant charge ratio was determined by comparing the percentage of fluorescent cells (FIG. 5A) with cell viability (FIG. 5B). The cells were transfected with either transfection mixtures of the 16-3-16 gemini surfactant and DOPE at plasmid DNA:gemini surfactant charge ratio of 1:5, 1:10, 1:20 or 1:40, or Lipofectamine Plus™ Reagent (L), using 0.2 μg pGTmCMV.IFN-GFP, and compared to non-transfected cells (NT). Triplicate samples were pooled and 1×10^4 cells counted. […] At plasmid DNA:gemini surfactant charge ratio of 1:40 the transfection efficiency was 3.13%, however, cell viability fell to 20%. […] No fluorescence was detected in the non-transfected cells.

[4] = plasmid DNA:gemini surfactant charge ratio 1:40, with DOPE
[5] = plasmid:gemini surfactant charge ratio 1:10, with DOPE

| Compound | IFN-γ expression (PAM212 cells [1]) [ng/5 × 10^5 cells] | transfection efficiency (in words) (PAM212 cells [1]) | IFNγ levels versus the other compounds with longer linkers (PAM212 cells [1]) | distance between the cationic head groups [2] [nm] | Γ × 10^6 (surface excess concentration) [2] [mol/m^2] | CMC (critical micellar concentration) [2] [mM] | a (head group areas based on activity) [2] [nm^2/molecule] | α (degree of micelle ionization) [2] | Krafft point [2] [°C] | IFNγ detection after transfection with single component alone (PAM212 cells [1]; agent alone, or plasmid without transfection agents) | cell viability (PAM212 cells [3]; [4]) [%] | transfection efficiency (fluorescent cells) (PAM212 cells [3]; [4]) [%] | cell viability (PAM212 cells [3]; [5]) [%] | percentage of fluorescent cells (PAM212 cells [3]; [5]) [%] |
| --- | --- | --- | --- | --- | --- | --- | --- | --- | --- | --- | --- | --- | --- | --- |
| CCCCCCCCCCCC[N+](C)(C)CCC[N+](C)(C)CCCCCCCCCCCC.[Br-].[Br-] [12-3-12] | 1.11 ± 0.65 | highest activity | Significantly higher | 0.49 | 1.58 | 0.98 ± 0.04 | 0.98 | 0.23 ± 0.02 | 12.7 | – | – | – | – | – |
| CCCCCCCCCCCC[N+](C)(C)CCCCCCCCCCCC[N+](C)(C)CCCCCCCCCCCC [12-12-12] | 0.33 ± 0.16 | – | – | – | 0.73 | 0.36 ± 0.03 | 2.14 | 0.56 ± 0.08 | 13.6 | – | – | – | – | – |
| CCCCCCCCCCCC[N+](C)(C)CCCCCCCC[N+](C)(C)CCCCCCCCCCCC.[Br-].[Br-] [12-8-12] | 0.24 ± 0.12 | – | – | – | 0.94 | 0.84 ± 0.03 | 1.78 | 0.46 ± 0.04 | <0 | – | – | – | – | – |
| CCCCCCCCCCCC[N+](C)(C)CCCCCCCCCCCCCCCC[N+](C)(C)CCCCCCCCCCCC.[Br-].[Br-] [12-16-12] | 0.49 ± 0.19 | – | – | – | 0.83 | 0.12 ± 0.01 | 1.44 | 0.59 ± 0.08 | 24.3 | – | – | – | – | – |
| CCCCCCCCCCCC[N+](C)(C)CCCC[N+](C)(C)CCCCCCCCCCCC.[Br-].[Br-] [12-4-12] | 0.66 ± 0.32 | – | Significantly higher | – | 1.43 | 1.17 ± 0.04 | 1.10 | 0.26 ± 0.02 | 10.6 | – | – | – | – | – |
| CCCCCCCCCCCC[N+](C)(C)CCCCCC[N+](C)(C)CCCCCCCCCCCC.[Br-].[Br-] [12-6-12] | 0.48 ± 0.17 | – | – | 0.91 | 1.16 | 1.09 ± 0.04 | 1.40 | 0.34 ± 0.02 | <0 | – | – | – | – | – |
| CCCCCCCC/C=C\CCCCCCCC(=O)OC[C@H](COP(=O)(O)OCCN)OC(=O)CCCCCCC/C=C\CCCCCCCC [DOPE, 1,2 dioleyl-sn-glycero-phosphatidylethanolamine, reference compound] | – | – | – | – | – | – | – | – | – | No IFNγ was detected | – | – | – | – |
| CCCCCCCCCCCC[N+](C)(C)CCCCCCCCCC[N+](C)(C)CCCCCCCCCCCC.[Br-].[Br-] [12-10-12] | 0.29 ± 0.10 | – | – | – | 0.75 | 0.62 ± 0.03 | 2.16 | 0.51 ± 0.06 | <0 | – | – | – | – | – |
| CCCCCCCCCCCCCCCC[N+](C)(C)CCC[N+](C)(C)CCCCCCCCCCCCCCCC [16-3-16] | 1.63 ± 1.37 | highest activity | Significantly higher | – | 1.08 | 0.026 ± 0.001 | 1.02 | 0.35 ± 0.02 | 42 | – | 20 | 3.13 | 74 | 2.36 |
